Experimental data published in patent publication US9827228B2, “Opioid receptor modulators and use thereof” (priority 2015, dated 2017).
Read-outs that look alike come from different tables or passages of the source.

Target: T1, hMOR (Homo sapiens, UniProt P35372)
T1 construct: host or cells: CHO-K1
Assay: cell-based
Format: cell-based
Conditions: for AUC: AUC of [Ca2+]i fluorescence
Protocol: Chinese hamster ovary (CHO)-K1 cells expressing hMOR and Gα15 (CHO-K1/MOR/Gα15) were cultured in F12 medium (GIBCO) supplemented with 10 μg/mL Hygromycin B (Invivogen), 20 μg/mL Zeocin (Invivogen) and P/S/F (100 units/mL penicillin, 100 μg/mL streptomycin, 10% fetal bovine serum). The cultures were incubated at 37° C. in a humidified 5% CO2 incubator.
One day prior to running the assay, CORNING® black 96-well assay plates having a clear flat bottom were coated with a 0.1 mg/mL Poly-L-Lysine solution. CHO-K1/MOR/Gα15 cells were suspended in F12 medium and plated at a density of about 8×10^4 cells/well in 200 μL medium. Cells were incubated under a humidified atmosphere of 10% CO2 at 37° C. overnight to reach an 80-90% confluent cell monolayer before the assay. On the day of the assay, 150 μL medium was removed from each well of the plates. To each well were added FLIPR® calcium assay reagents (Molecular Devices Corporation, Sunnyvale, Calif., USA; 50 μL) dissolved in 1× assay buffer (HBSS: KCl 5 mM, KH2PO4 0.3 mM, NaCl 138 mM, NaHCO3 4 mM, Na2HPO4 0.3 mM, d-glucose 5.6 mM, with additional 20 mM HEPES and […], pH 7.4) and 2.5 mM probenecid. After incubation at 37° C. for 1 hour, a test compound, alone or together with naloxone (a MOR antagonist), was also added to each well. Using a FlexStationlll instrument (Molecular Devices Corp.), increments of the [Ca^2+]i fluorescence after robotic injection of the cell suspension were monitored at 1.52 s intervals using the excitation wavelength of 485 nm and the emission wavelength of 525 nm. The [Ca^2+]i fluorescence was measured up to 90 s after the injection. The fluorescence intensity from 6 to 12 wells of cells were averaged and the relative amount of [Ca^2+]i release was determined by integrating the AUC of the [Ca^2+]i fluorescence averages.
A CHO-K1 cell line expressing MOR and Gα15 (GenScript) was used to set up a sensitive high-throughput screen (HTS) system. […] The HTS was performed in the absence or presence of naloxone (an opioid antagonist; 20 nM), to identify AAMs.

[1] = combined with naloxone, CHO-K1/MOR/Gα15 cells
[2] = combined with naloxone, CHO-K1/MOR/Gα15 cells, read-out: EC50
[3] = EC50, combined with naloxone, CHO-K1/MOR/Gα15 cells

T1 sequence (P35372 whole entry): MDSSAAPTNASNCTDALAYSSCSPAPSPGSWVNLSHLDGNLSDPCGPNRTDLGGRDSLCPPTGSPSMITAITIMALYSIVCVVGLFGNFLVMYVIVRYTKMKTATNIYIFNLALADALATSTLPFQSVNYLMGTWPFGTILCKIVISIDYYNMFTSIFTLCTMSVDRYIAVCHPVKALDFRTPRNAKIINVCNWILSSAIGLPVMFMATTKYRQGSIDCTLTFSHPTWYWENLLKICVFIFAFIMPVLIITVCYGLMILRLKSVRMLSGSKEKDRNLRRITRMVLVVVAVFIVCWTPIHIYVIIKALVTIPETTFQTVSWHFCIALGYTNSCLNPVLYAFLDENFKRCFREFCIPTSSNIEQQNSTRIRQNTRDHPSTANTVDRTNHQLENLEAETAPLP

For COc1cccc(C)c1Nc1nc(-c2sc(C)nc2C)cs1 [Compound 4, N-(2-Methoxy-6-methylphenyl)-2′,4′-dimethyl-4,5′-bi-1,3-thiazol-2-amine], the AUC [1] was “+ (+: >5000)” and the EC50 [2] was > 10 µM.
With Cc1nc(C)c(-c2csc(Nc3ccccc3Oc3ccccc3)n2)s1 [Compound 6, N-(2-Phenoxyphenyl)-2′,4′-dimethyl-4,5′-bi-1,3-thiazol-2-amine] the AUC [1] was “− (−: <5000)” and the EC50 [2] was > 10 µM.
In the case of Cc1nc(C)c(-c2csc(Nc3ccccc3Cl)n2)s1 [Compound 8, N-(2-Chlorophenyl)-2′,4′-dimethyl-4,5′-bi-1,3-thiazol-2-amine], the AUC [1] is reported as “− (−: <5000)” and the EC50 [2] is reported as > 10 µM.
With Cc1nc(C)c(-c2csc(Nc3ccccc3F)n2)s1 [Compound 9, N-(2-Fluorophenyl)-2′,4′-dimethyl-4,5′-bi-1,3-thiazol-2-amine] the AUC [1] was “− (−: <5000)” and the EC50 [2] was > 10 µM.
With Cc1nc(C)c(-c2csc(Nc3cc(F)ccc3C)n2)s1 [Compound 10, N-(5-Fluoro-2-methylphenyl)-2′,4′-dimethyl-4,5′-bi-1,3-thiazol-2-amine] the AUC [1] was “− (−: <5000)” and the EC50 [2] was > 10 µM.
In the case of COc1ccc(C)c(Nc2nc(-c3sc(C)nc3C)cs2)c1 [Compound 12, N-(5-Methoxy-2-methylphenyl)-2′,4′-dimethyl-4,5′-bi-1,3-thiazol-2-amine], the AUC [1] is reported as “− (−: <5000)” and the EC50 [2] is reported as > 10 µM.
For COc1ccc(Nc2nc(-c3sc(C)nc3C)cs2)c(OC)c1 [Compound 14, N-(2,4-Dimethoxyphenyl)-2′,4′-dimethyl-4,5′-bi-1,3-thiazol-2-amine], the AUC [1] was “+ (+: >5000)” and the EC50 [2] was > 10 µM.
With Cc1nc(C)c(-c2csc(Nc3cc(Cl)ccc3C)n2)s1 [Compound 15, N-(5-Chloro-2-methylphenyl)-2′,4′-dimethyl-4,5′-bi-1,3-thiazol-2-amine] the AUC [1] was “− (−: <5000)” and the EC50 [2] was > 10 µM.
For Cc1cc(C)c(Nc2nc(-c3sc(C)nc3C)cs2)c(C)c1 [Compound 17, 2′,4′-Dimethyl-N-(2,4,6-trimethylphenyl)-4,5′-bi-1,3-thiazol-2-amine], the AUC [1] was “+ (+: >5000)”, the EC50 (EC50, combined with naloxone) was < 10 µM and the EC50 [3] was 3 to 10 µM.
Cc1nc(C)c(-c2csc(Nc3cc(Br)ccc3C)n2)s1 [Compound 19, N-(5-Bromo-2-methylphenyl)-2′,4′-dimethyl-4,5′-bi-1,3-thiazol-2-amine] was tested, and the AUC [1] was “− (−: <5000)” and the EC50 [2] was > 10 µM.
With Cc1nc(C)c(-c2csc(Nc3cccc(F)c3C)n2)s1 [Compound 21, N-(3-Fluoro-2-methylphenyl)-2′,4′-dimethyl-4,5′-bi-1,3-thiazol-2-amine] the AUC [1] was “+ (+: >5000)” and the EC50 [2] was > 10 µM.
Cc1nc(C)c(-c2csc(Nc3c(C(C)C)cccc3C(C)C)n2)s1 [Compound 23, N-(2,6-Diisopropylphenyl)-2′,4′-dimethyl-4,5′-bi-1,3-thiazol-2-amine] was tested, and the AUC [1] was “− (−: <5000)” and the EC50 [2] was > 10 µM.
For Cc1ccc(C)c(Nc2nc(-c3sc(C)nc3C)cs2)c1 [Compound 25, N-(2,5-Dimethylphenyl)-2′,4′-dimethyl-4,5′-bi-1,3-thiazol-2-amine], the AUC [1] was “− (−: <5000)” and the EC50 [2] was > 10 µM.
With COc1cc(C)c(Nc2nc(-c3sc(C)nc3C)cs2)cc1OC [Compound 27, N-(4,5-Dimethoxy-2-methylphenyl)-2′,4′-dimethyl-4,5′-bi-1,3-thiazol-2-amine] the AUC [1] was “− (−: <5000)” and the EC50 [2] was > 10 µM.
With Cc1ccc(Nc2nc(-c3sc(C)nc3C)cs2)c(C)c1 [Compound 29, N-(2,4-Dimethylphenyl)-2′,4′-dimethyl-4,5′-bi-1,3-thiazol-2-amine] the AUC [1] was “+ (+: >5000)”, the EC50 (EC50, combined with naloxone) was < 10 µM and the EC50 [3] was 3 to 10 µM.
Cc1nc(C)c(-c2csc(Nc3ccc(F)cc3C)n2)s1 [Compound 31, N-(4-Fluoro-2-methylphenyl)-2′,4′-dimethyl-4,5′-bi-1,3-thiazol-2-amine] was tested, and the AUC [1] was “− (−: <5000)” and the EC50 [2] was > 10 µM.
In the case of Cc1nc(C)c(-c2csc(Nc3c(C)cccc3F)n2)s1 [Compound 33, N-(2-Fluoro-6-methylphenyl)-2′,4′-dimethyl-4,5′-bi-1,3-thiazol-2-amine], the AUC [1] is reported as “+ (+: >5000)”, the EC50 (EC50, combined with naloxone) is reported as < 10 µM and the EC50 [3] is reported as 3 to 10 µM.
In the case of COc1ccc(Nc2nc(-c3sc(C)nc3C)cs2)c(C)c1 [Compound 35, N-(4-Methoxy-2-methylphenyl)-2′,4′-dimethyl-4,5′-bi-1,3-thiazol-2-amine], the AUC [1] is reported as “+ (+: >5000)” and the EC50 [2] is reported as > 10 µM.
With COc1cc(Nc2nc(-c3sc(C)nc3C)cs2)cc(OC)c1OC [Compound 37, 2′,4′-Dimethyl-N-(3,4,5-trimethoxyphenyl)-4,5′-bi-1,3-thiazol-2-amine] the AUC [1] was “− (−: <5000)” and the EC50 [2] was > 10 µM.
For Cc1cc(C)cc(Nc2nc(-c3sc(C)nc3C)cs2)c1 [Compound 39, N-(3,5-Dimethylphenyl)-2′,4′-dimethyl-4,5′-bi-1,3-thiazol-2-amine], the AUC [1] was “− (−: <5000)” and the EC50 [2] was > 10 µM.
In the case of Cc1nc(C)c(-c2csc(Nc3c(C)cccc3C)n2)s1 [Compound 41, N-(2,6-Dimethylphenyl)-2′,4′-dimethyl-4,5′-bi-1,3-thiazol-2-amine], the AUC [1] is reported as “− (−: <5000)” and the EC50 [2] is reported as > 10 µM.
With Cc1nc(C)c(-c2csc(Nc3ccc(Br)cc3C)n2)s1 [Compound 42, N-(4-Bromo-2-methylphenyl)-2′,4′-dimethyl-4,5′-bi-1,3-thiazol-2-amine] the AUC [1] was “− (−: <5000)” and the EC50 [2] was > 10 µM.
In the case of Cc1nc(C)c(-c2csc(Nc3ccc(Br)cc3C(F)(F)F)n2)s1 [Compound 43, N-[4-Bromo-2-(trifluoromethyl)phenyl]-2′,4′-dimethyl-4,5′-bi-1,3-thiazol-2-amine], the AUC [1] is reported as “+ (+: >5000)” and the EC50 [2] is reported as > 10 µM.
In the case of CC(=O)c1ccc(Nc2nc(-c3sc(C)nc3C)cs2)cc1 [Compound 44, 1-{4-[(2′,4′-Dimethyl-4,5′-bi-1,3-thiazol-2-yl)amino]phenyl}ethanone], the AUC [1] is reported as “− (−: <5000)” and the EC50 [3] is reported as > 10 µM.
For CCc1cccc(CC)c1Nc1nc(-c2sc(C)nc2C)cs1 [Compound 45, N-(2,6-Diethylphenyl)-2′,4′-dimethyl-4,5′-bi-1,3-thiazol-2-amine], the AUC [1] was “− (−: <5000)”, the EC50 (EC50, combined with naloxone) was < 10 µM and the EC50 [3] was 1 to 3 µM.
CCc1cccc(C)c1Nc1nc(-c2sc(C)nc2C)cs1 [Compound 47, N-(2-Ethyl-6-methylphenyl)-2′,4′-dimethyl-4,5′-bi-1,3-thiazol-2-amine] was tested, and the AUC [1] was “+ (+: >5000)”, the EC50 (EC50, combined with naloxone) was < 10 µM and the EC50 [3] was 1 to 3 µM.
In the case of CCc1cc(Br)ccc1Nc1nc(-c2sc(C)nc2C)cs1 [Compound 49, N-(4-Bromo-2-ethylphenyl)-2′,4′-dimethyl-4,5′-bi-1,3-thiazol-2-amine], the AUC [1] is reported as “− (−: <5000)”, the EC50 (EC50, combined with naloxone) is reported as < 10 µM and the EC50 [3] is reported as 3 to 10 µM.
Cc1nc(C)c(-c2csc(Nc3c(C)cc(Cl)cc3C)n2)s1 [Compound 51, N-(4-Chloro-2,6-dimethylphenyl)-2′,4′-dimethyl-4,5′-bi-1,3-thiazol-2-amine] was tested, and the AUC [1] was “− (−: <5000)” and the EC50 [2] was > 10 µM.
With Cc1nc(C)c(-c2csc(Nc3cccc(C)c3C)n2)s1 [Compound 53, N-(2,3-Dimethylphenyl)-2′,4′-dimethyl-4,5′-bi-1,3-thiazol-2-amine] the AUC [1] was “+ (+: >5000)” and the EC50 [2] was > 10 µM.
For Cc1nc(C)c(-c2csc(Nc3c(C)cc(F)cc3C)n2)s1 [Compound 55, N-(4-Fluoro-2,6-dimethylphenyl)-2′,4′-dimethyl-4,5′-bi-1,3-thiazol-2-amine], the AUC [1] was “+ (+: >5000)” and the EC50 [2] was > 10 µM.
For Cc1nc(C)c(-c2csc(Nc3ccc(C(=O)O)cc3C)n2)s1 [Compound 57, 4-[(2′,4′-Dimethyl-4,5′-bi-1,3-thiazol-2-yl)amino]-3-methylbenzoic acid], the AUC [1] was “− (−: <5000)” and the EC50 [2] was > 10 µM.
Cc1nc(C)c(-c2csc(Nc3ccc(O)cc3C)n2)s1 [Compound 60, 4-[(2′,4′-Dimethyl-4,5′-bi-1,3-thiazol-2-yl)amino]-3-methylphenol] was tested, and the AUC [1] was “− (−: <5000)” and the EC50 [2] was > 10 µM.
With Cc1nc(C)c(-c2csc(Nc3ccccc3CO)n2)s1 [Compound 62, {2-[(2′,4′-Dimethyl-4,5′-bi-1,3-thiazol-2-yl)amino]phenyl}methanol] the AUC [1] was “− (−: <5000)” and the EC50 [2] was > 10 µM.
For Cc1nc(C)c(-c2csc(Nc3ccccc3O)n2)s1 [Compound 65, 2-[(2′,4′-Dimethyl-4,5′-bi-1,3-thiazol-2-yl)amino]phenol], the AUC [1] was “+ (+: >5000)” and the EC50 [2] was > 10 µM.
